Read-outs that look alike come from different tables or passages of the source.
How the values were obtained:
[1] = system: Cabbage Looper (Trichoplusia ni) ("CL"), second instar larvae; test: Bioassay on cabbage looper (CL), 128-well diet tray assay; assay type: in vivo
Outline: (§1)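 Each value represents average percent mortality from eight wells. Larvae were kept in clear-covered trays at 25° C. for five to seven days on a 14-hour light, 10-hour dark schedule before scoring.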

[2] = system: Beet Armyworm (Spodoptera exigua) ("BAW"), second instar larvae; test: Bioassay on beet armyworm (BAW), 128-well diet tray assay; assay type: in vivo; conditions: for pest or weed control at 50 µg/cm2: Spodoptera exigua
Outline: as §1

[3] = Trichoplusia ni, read-out: CL rating
[4] = Trichoplusia ni, read-out: CL (Biological Results, rating)
[5] = read-out: BAW (Biological Results, rating)

Structure (SMILES)	pest or weed control at 50 µg/cm2 [1, 3]	pest or weed control at 50 µg/cm2 ([2]; read-out: BAW rating)	pest or weed control at 50 µg/cm2 [1, 4]	pest or weed control at 50 µg/cm2 [2, 5]	further results
Cc1ccc(Cc2ccc(F)cc2)c(N2C(=O)CS/C2=N\C(=O)Nc2ccc(-c3ncn(-c4ccc(S(F)(F)(F)(F)F)cc4)n3)cc2C#N)c1 [Compound J683, (Z)-1-(2-Cyano-4-(1-(4-(pentafluoro-λ^6-sulfaneyl)phenyl)-1H-1,2,4-triazol-3-yl)phenyl)-3-(3-(2-(4-fluorobenzyl)-5-methylphenyl)-4-oxothiazolidin-2-ylidene)urea]	50 to 100%	50 to 100%			
COC(C)c1ccc(C)cc1N1C(=O)CS/C1=N\C(=O)Nc1ccc(-n2cnc(-c3ccc(OC(F)(F)F)cc3)n2)cc1F (stereo not drawn) [Compound J685, (Z)-1-(2-Fluoro-4-(3-(4-(trifluoromethoxy)phenyl)-1H-1,2,4-triazol-1-yl)phenyl)-3-(3-(2-(1-methoxyethyl)-5-methylphenyl)-4-oxothiazolidin-2-ylidene)urea]	50 to 100%	50 to 100%			
COC(C)c1cc(C)ccc1N1C(=O)CS/C1=N\C(=O)Nc1ccc(-c2ncn(-c3ccc(C(F)(F)F)cn3)n2)cc1F (stereo not drawn) [Compound J300, (Z)-1-(2-Fluoro-4-(1-(5-(trifluoromethyl)pyridin-2-yl)-1H-1,2,4-triazol-3-yl)phenyl)-3-(3-(2-(1-methoxyethyl)-4-methylphenyl)-4-oxothiazolidin-2-ylidene)urea]			50 to 100%	50 to 100%	
CC(C)c1cc(F)c(N(C)C)cc1N1C(=O)CS/C1=N\C(=O)Nc1ccc(-n2cnc(-c3ccc(OC(F)(F)F)cc3)n2)cc1 [Compound J410, (Z)-1-(3-(5-(Dimethylamino)-4-fluoro-2-isopropylphenyl)-4-oxothiazolidin-2-ylidene)-3-(4-(3-(4-(trifluoromethoxy)phenyl)-1H-1,2,4-triazol-1-yl)phenyl)urea]	50 to 100%	50 to 100%			
CNc1ccc(C(C)C)c(N2C(=O)CS/C2=N\C(=O)Nc2ccc(-c3ncn(-c4ccc(OC(F)(F)F)cc4)n3)cc2F)c1 [Compound J85, (Z)-1-(2-Fluoro-4-(1-(4-(trifluoromethoxy)phenyl)-1H-1,2,4-triazol-3-yl)phenyl)-3-(3-(2-isopropyl-5-(methylamino)phenyl)-4-oxothiazolidin-2-ylidene)urea]			50 to 100%	50 to 100%	
Cc1ccc(COCC(F)(F)F)c(N2C(=O)CS/C2=N\C(=O)Nc2ccc(-c3ncn(-c4ccc(SC(F)(F)F)cc4)n3)cc2F)c1 [Compound J186, (Z)-1-(2-Fluoro-4-(1-(4-((trifluoromethyl)thio)phenyl)-1H-1,2,4-triazol-3-yl)phenyl)-3-(3-(5-methyl-2-((2,2,2-trifluoroethoxy)methyl)phenyl)-4-oxothiazolidin-2-ylidene)urea]			50 to 100%	50 to 100%	
CCOC(C)c1ccc(C)cc1N1C(=O)CS/C1=N\C(=O)Nc1ccc(-c2ncn(-c3ccc(OC(F)(F)F)cc3)n2)cc1OCOC (stereo not drawn) [Compound J174, (Z)-1-(3-(2-(1-Ethoxyethyl)-5-methylphenyl)-4-oxothiazolidin-2-ylidene)-3-(2-(methoxymethoxy)-4-(1-(4-(trifluoromethoxy)phenyl)-1H-1,2,4-triazol-3-yl)phenyl)urea]			50 to 100%	50 to 100%	
COc1ccc(C(C)C)c(N2C(=O)CS/C2=N\C(=O)Nc2ccc(-c3ncn(-c4ccc(OC(F)(F)F)cn4)n3)cc2C#N)c1 [Compound J268, (Z)-1-(2-Cyano-4-(1-(5-(trifluoromethoxy)pyridin-2-yl)-1H-1,2,4-triazol-3-yl)phenyl)-3-(3-(2-isopropyl-5-methoxyphenyl)-4-oxothiazolidin-2-ylidene)urea]			50 to 100%	50 to 100%	
CCCc1ccc(N(C)C)cc1N1C(=O)CS/C1=N\C(=O)Nc1ccc(-c2ncn(-c3ccc(OC(F)(F)F)cn3)n2)cc1F [Compound J258, (Z)-1-(3-(5-(Dimethylamino)-2-propylphenyl)-4-oxothiazolidin-2-ylidene)-3-(2-fluoro-4-(1-(5-(trifluoromethoxy)pyridin-2-yl)-1H-1,2,4-triazol-3-yl)phenyl)urea]			50 to 100%	50 to 100%	
COC(c1ccc(C)cc1N1C(=O)CS/C1=N\C(=O)Nc1ccc(-c2nnc(-c3ccc(OC(F)(F)F)cc3)o2)cc1F)C(F)(F)F (stereo not drawn) [Compound J433, (Z)-1-(2-Fluoro-4-(5-(4-(trifluoromethoxy)phenyl)-1,3,4-oxadiazol-2-yl)phenyl)-3-(3-(5-methyl-2-(2,2,2-trifluoro-1-methoxyethyl)phenyl)-4-oxothiazolidin-2-ylidene)urea]	50 to 100%	50 to 100%			
CCOCc1ccc(C)cc1N1C(=O)CS/C1=N\C(=O)Nc1ccc(-c2cn(-c3ccc(OC(F)(F)F)cc3)nn2)cc1 [Compound J493, (Z)-1-(3-(2-(Ethoxymethyl)-5-methylphenyl)-4-oxothiazolidin-2-ylidene)-3-(4-(1-(4-(trifluoromethoxy)phenyl)-1H-1,2,3-triazol-4-yl)phenyl)urea]	50 to 100%	50 to 100%			
COc1ccc(COCC(F)(F)F)c(N2C(=O)CS/C2=N\C(=O)Nc2ccc(-c3ncn(-c4ccc(S(F)(F)(F)(F)F)cc4)n3)cc2C)c1 [Compound J577]					CL rating ([1]; Table ABC, species CL, C = not tested, D = no activity noticed): A (50-100); BAW rating ([2]; Table ABC, species BAW, C = not tested, D = no activity noticed): A (50-100)
COC(C)c1ccc(C)cc1N1C(=O)CS/C1=N\C(=O)Nc1ccc(-c2ncn(-c3ccc(OC(F)(F)F)cn3)n2)cc1F (stereo not drawn) [Compound J236, (Z)-1-(2-Fluoro-4-(1-(5-(trifluoromethoxy)pyridin-2-yl)-1H-1,2,4-triazol-3-yl)phenyl)-3-(3-(2-(1-methoxyethyl)-5-methylphenyl)-4-oxothiazolidin-2-ylidene)urea]			50 to 100%	50 to 100%	
CCC(C)Oc1ccc(C)cc1N1C(=O)CS/C1=N\C(=O)Nc1ccc(-c2ncn(-c3ccc(OC(F)(F)F)cc3)n2)cc1F (stereo not drawn) [Compound J51, (Z)-1-(3-(2-(sec-Butoxy)-5-methylphenyl)-4-oxothiazolidin-2-ylidene)-3-(2-fluoro-4-(1-(4-(trifluoromethoxy)phenyl)-1H-1,2,4-triazol-3-yl)phenyl)urea]			50 to 100%	50 to 100%	
COC(c1ccc(C)cc1N1C(=O)CS/C1=N\C(=O)Nc1ccc(-c2ncn(-c3ccc(C(F)F)cn3)n2)cc1F)C(F)(F)F (stereo not drawn) [Compound J353]					CL (Biological Results, rating) ([1]; Cabbage Looper (Trichoplusia ni), C = Not Tested): A (50-100); BAW (Biological Results, rating) ([2]; Beet Armyworm (Spodoptera exigua), C = Not Tested): A (50-100)
CCCOc1ccc(C)cc1N1C(=O)CS/C1=N\C(=O)Nc1ccc(-c2ncn(-c3ccc(OC(F)(F)F)cc3)n2)cc1F [Compound J125, (Z)-1-(2-Fluoro-4-(1-(4-(trifluoromethoxy)phenyl)-1H-1,2,4-triazol-3-yl)phenyl)-3-(3-(5-methyl-2-propoxyphenyl)-4-oxothiazolidin-2-ylidene)urea]			50 to 100%	50 to 100%	
CCCc1ccc(C)cc1N1C(=O)CS/C1=N\C(=O)Nc1ccc(-c2ncn(-c3ccc(N(C(=O)OC)C(F)(F)F)cc3)n2)cc1F [Compound J783, Methyl (Z)-(4-(3-(3-fluoro-4-(3-(3-(5-methyl-2-propylphenyl)-4-oxothiazolidin-2-ylidene)ureido)phenyl)-1H-1,2,4-triazol-1-yl)phenyl)(trifluoromethyl)carbamate]	50 to 100%	50 to 100%			
Cc1cc(COCC(F)(F)F)c(N2C(=O)CS/C2=N\C(=O)Nc2ccc(-n3cnc(-c4ccc(OC(F)(F)F)cc4)n3)cc2Cl)cc1C [Compound J733, (Z)-1-(2-Chloro-4-(3-(4-(trifluoromethoxy)phenyl)-1H-1,2,4-triazol-1-yl)phenyl)-3-(3-(4,5-dimethyl-2-((2,2,2-trifluoroethoxy)methyl)phenyl)-4-oxothiazolidin-2-ylidene)urea]	50 to 100%	50 to 100%			
COc1ccc(COCC(F)(F)F)c(N2C(=O)CS/C2=N\C(=O)Nc2ccc(-n3cnc(-c4ccc(OC(F)(F)F)cc4)n3)cc2F)c1 [Compound J691, (Z)-1-(2-Fluoro-4-(3-(4-(trifluoromethoxy)phenyl)-1H-1,2,4-triazol-1-yl)phenyl)-3-(3-(5-methoxy-2-((2,2,2-trifluoroethoxy)methyl)phenyl)-4-oxothiazolidin-2-ylidene)urea]	50 to 100%	50 to 100%			
CCCc1ccc(N(C)C)cc1N1C(=O)CS/C1=N\C(=O)Nc1ccc(-c2cn(-c3ccc(S(F)(F)(F)(F)F)cc3)cn2)cc1F [Compound J602, (Z)-1-(3-(5-(Dimethylamino)-2-propylphenyl)-4-oxothiazolidin-2-ylidene)-3-(2-fluoro-4-(1-(4-(pentafluoro-λ^6-sulfaneyl)phenyl)-1H-imidazol-4-yl)phenyl)urea]	50 to 100%	50 to 100%			
Cc1ccc(COCC(F)(F)F)c(N2C(=O)CS/C2=N\C(=O)Nc2ccc(-n3cnc(-c4ccc(OC(F)(F)F)cc4)c3)cc2Cl)c1 [Compound J786, (Z)-1-(2-Chloro-4-(4-(4-(trifluoromethoxy)phenyl)-1H-imidazol-1-yl)phenyl)-3-(3-(5-methyl-2-((2,2,2-trifluoroethoxy)methyl)phenyl)-4-oxothiazolidin-2-ylidene)urea]					mortality at 50 µg/cm2 ([1]; Trichoplusia ni, Table ABC, species CL, 128-well diet tray assay, second instar larvae, read-out: CL rating (% control or mortality class)): 50 to 100%; BAW rating (% control or mortality class) ([2]; Table ABC, species BAW, 128-well diet tray assay, second instar larvae): A (50-100)

— patent US20230077362A1 (CORTEVA AGRISCIENCE LLC, priority 2019, published 2023)
